Results published in patent publication US5814631A, “Quinazoline derivatives and applications thereof” (Suntory Limited, priority 1995, dated 1998).

How the values were obtained:
human heart chymase = biological target: T1, human heart chymase (Homo sapiens, UniProt P23946); assay: biochemical; conditions: Chymase inhibitive activity (IC50), Ang I substrate, 37° C., 30 min, pH 7.5
T1 sequence (P23946 22-247): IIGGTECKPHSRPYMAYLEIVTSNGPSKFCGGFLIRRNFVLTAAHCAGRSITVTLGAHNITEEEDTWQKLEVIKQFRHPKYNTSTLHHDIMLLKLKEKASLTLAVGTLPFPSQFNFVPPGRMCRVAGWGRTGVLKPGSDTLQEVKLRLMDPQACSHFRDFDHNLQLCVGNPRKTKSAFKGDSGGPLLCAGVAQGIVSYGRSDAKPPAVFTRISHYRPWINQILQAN
Protocol: That is, to 10 μl of a 20 mM trisphosphate buffer (pH 7.5) containing 2MKCl were added 10 μl of purified chymase and 5 μl of a dimethylsulfoxide (hereinafter referred to as DMSO) solution of the test sample. The mixture was preincubated at 37° C. for 10 minutes, then 25 μl of a 1 mM Ang I solution was added and the mixture preincubated at 37° C. for 30 minutes. Next, 50 μl of 30% acetic acid was added to stop the enzymatic reaction. At the same time, a blind test was performed by adding, instead of the test sample solution, 5 μl of DMSO and performing the same reaction.
The reacted solution was subjected to high performance liquid chromatography using Develosil ODS-5 (made by Nomura Kagaku, .phi.4.6 mm×150 mm) and developed at a flow rate of 2.0 ml/min in 0.05% TFA by a straight concentration gradient raising the acetonitrile from 0% to 60% over 10 minutes. This was monitored by the absorbance at 210 nm and the peaks identified by comparison with standard samples of Ang I and Ang II. The peak areas were measured by an integrating meter to quantitatively analyze the Ang I and Ang II and calculate the chymase activity.

[1] = biological target: T2, bovine pancreatic α-chymotrypsin (Bos taurus, UniProt P00766); assay: Measurement of chymotrypsin inhibitive activity (Ang I, HPLC); type: biochemical; conditions: bovine pancreatic α-chymotrypsin; Ang I substrate; 37° C., 15 min; pH 7.5
T2 construct: purchased Sigma Co. Type II; host or cells: bovine pancreas

[2] = biological target: T3, human neutrophil derived cathepsin G (Homo sapiens, UniProt P08311); assay: Measurement of cathepsin G inhibitive activity (conversion of Ang I to Ang II, HPLC); type: biochemical; conditions: Ang I substrate, 37° C., 30 min, pH 7.5
T3 sequence (P08311 21-244 limits assumed): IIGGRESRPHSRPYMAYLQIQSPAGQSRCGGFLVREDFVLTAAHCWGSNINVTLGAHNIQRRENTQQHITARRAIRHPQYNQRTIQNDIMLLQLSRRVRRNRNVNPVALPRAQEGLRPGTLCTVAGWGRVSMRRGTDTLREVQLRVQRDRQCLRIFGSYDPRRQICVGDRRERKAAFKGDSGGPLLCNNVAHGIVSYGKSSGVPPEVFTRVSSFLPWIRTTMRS

Row | Compound | IC50 (human heart chymase) | IC50 [1] | IC50 [2]
1 | O=C(O)c1ccc(S(=O)(=O)n2c(=O)[nH]c3cc(Cl)ccc3c2=O)cc1 | 3100 nM | 25000 nM | 580 nM
2 | Cc1ccc2[nH]c(=O)n(S(=O)(=O)c3ccc(Cl)cc3)c(=O)c2c1 [Example 3] | 3900 nM | 3500 nM | 64400 nM
3 | C=CCOC(=O)c1ccc(S(=O)(=O)n2c(=O)[nH]c3cc(Cl)ccc3c2=O)cc1 [Example 5, 3-(4-allyloxycarbonylbenzenesulfonyl)-7-chloro-2,4(1H,3H)-quinazolinedione] | – | 2000 nM | 340 nM
4 | COc1cccc2c(=O)n(S(=O)(=O)c3ccc(Cl)cc3)c(=O)[nH]c12 [Example 7, 3-(4-chlorobenzenesulfonyl)-8-methoxy-2,4(1H,3H)-quinazolinedione] | 23000 nM | 1900 nM | 3200 nM
5 | Cc1ccc(S(=O)(=O)n2c(=O)[nH]c3cc(Cl)ccc3c2=O)cc1C [Example 9, 7-chloro-3-(3,4-dimethylbenzenesulfonyl)-2,4(1H,3H)-quinazolinedione] | 1600 nM | 2500 nM | 480 nM
6 | O=c1[nH]c2cc(Cl)ccc2c(=O)n1S(=O)(=O)c1ccccc1 [Example 11, 7-chloro-3-benzenesulfonyl-2,4 3(1H,3H)-quinazolinedione] | 730 nM | 3000 nM | 250 nM
7 | O=c1[nH]c2cc(Cl)ccc2c(=O)n1S(=O)(=O)c1ccc([N+](=O)[O-])cc1 [Example 13, 7-chloro-3-(4-nitrobenzenesulfonyl)-2,4(1H,3H)-quinazolinedione] | 850 nM | 240 nM | 34 nM
8 | O=c1[nH]c2cc3ccccc3cc2c(=O)n1S(=O)(=O)c1ccc(Cl)cc1 [Example 35, 3-(4chlorobenzenesulfonyl)-2,4(1H,3H)-benzo[g]quinazolinedione] | 2400 nM | 1400 nM | –
9 | CC(C)(C)OC(=O)C[n+]1cccc(NC(=O)Cn2c(=O)n(S(=O)(=O)c3ccc(Cl)cc3)c(=O)c3ccc(Cl)cc32)c1 [Example 83, 3-{[7-chloro-3-(4-chlorobenzenesulfonyl)-2,4(1H,3H)-quinazolinedion-1-yl]acetylamino}-(N-t-butoxycarbonylmethylpyridinium) bromide] | 38 nM | – | –
10 | Cn1ccc(S(=O)(=O)n2c(=O)c3ccc(Cl)cc3n(CC(=O)Nc3cccnc3)c2=O)c1 [Example 103, [7-chloro-3-(1-methylpyrrole-3-sulfonyl)-2,4(1H,3H)-quinazolinedion-1-yl]-N-(3-pyridyl)acetamide] | 4600 nM | – | –
11 | O=C(Cn1c(=O)n(S(=O)(=O)c2ccc(Cl)cc2)c(=O)c2ccc(Cl)cc21)Nc1cccc(OP(=O)(O)O)c1 [Example 105] | 25 nM | – | –
12 | O=C(Cn1c(=O)n(S(=O)(=O)c2ccc(Cl)cc2)c(=O)c2ccc(Cl)cc21)c1ccccc1 [Example 108, 7-chloro-3-(4-chlorobenzenesulfonyl)-1-phenacyl-2,4(1H,3H)-quinazolinedione] | 1300 nM | – | –
13 | O=C(Cn1c(=O)n(S(=O)(=O)c2cccnc2)c(=O)c2ccc(Cl)cc21)Nc1cccnc1 [Example 123, [7-chloro-3-(pyridine-3-sulfonyl)-2,4-(1H,3H)-quinazolinedion-1-yl]-N-(3-pyridyl)acetamide] | 580 nM | – | –
14 | O=c1[nH]c2cc(Cl)ccc2c(=O)n1S(=O)(=O)c1ccc[nH]1 [Example 125, 7-chloro-3-(pyrrole-2-sulfonyl)-2,4(1H,3H)-quinazolinedione] | 29000 nM | – | –
15 | O=c1[nH]c2cc(Cl)ccc2c(=O)n1S(=O)(=O)c1ccc(Cl)cc1F [Example 134, 7-chloro-3-(4-chloro-2-fluorobenzenesulfonyl)-2,4(1H,3H)-quinazolinedione] | 1800 nM | – | –
16 | O=c1[nH]c2cc(Cl)ccc2c(=O)n1S(=O)(=O)c1ccc(OCCBr)cc1 [Example 145, 7-chloro-3-[4-(2-bromoethyloxy)benzenesulfonyl]-2,4(1H,3H)-quinazolinedione] | 1500 nM | – | –
17 | O=c1[nH]c2cc(O)ccc2c(=O)n1S(=O)(=O)c1ccc(Cl)cc1 [Example 151] | 2800 nM | – | –

Second part, the compound after the results:

Row | IC50 (human heart chymase) | IC50 [1] | IC50 [2] | Compound
18 | 51 nM | – | – | O=C(Cn1c(=O)n(S(=O)(=O)c2ccc(Cl)cc2)c(=O)c2ccc(Cl)cc21)Nc1ccc2[nH]ccc2c1 [Example 82, [7-chloro-3-(4-chlorobenzenesulfonyl)-2,4(1h,3H)-quinazolinedion-1-yl]-N-(5-indolyl)acetamide]
19 | 43 nM | – | – | O=C(O)C[n+]1cccc(NC(=O)Cn2c(=O)n(S(=O)(=O)c3ccc(Cl)cc3)c(=O)c3ccc(Cl)cc32)c1 [Example 84, 3-{[7-chloro-3-(4-chlorobenzenesulfonyl)-2,4(1H,3H)-quinazolinedion-1-yl]acetylamino}-N-carboxymethylpyridinium bromide]
20 | 190 nM | – | – | O=C(Cn1c(=O)n(S(=O)(=O)c2ccc(Cl)cc2)c(=O)c2ccc(Cl)cc21)Nc1ccncn1 [Example 85, [7-chloro-3-(4-chlorobenzenesulfonyl)-2,4(1H,3H)-quinazolinedion-1-yl]-N-(4-pyrimidinyl)acetamide]
21 | 130 nM | – | – | CC[n+]1cccc(NC(=O)Cn2c(=O)n(S(=O)(=O)c3ccc(OC)cc3)c(=O)c3ccc(Cl)cc32)c1 [Example 90]
22 | 180 nM | – | – | O=C(Cn1c(=O)n(S(=O)(=O)c2ccc(Cl)cc2)c(=O)c2ccc(Cl)cc21)Nc1cccc2ncccc12 [Example 91, [7-chloro-3-(4-chlorobenzenesulfonyl)-2,4(1H,3H)-quinazolinedion-1-yl]-N-(5-quinolyl)acetamide]
23 | 390 nM | – | – | O=C(Cn1c(=O)n(S(=O)(=O)c2ccc(Cl)cc2)c(=O)c2ccc(Cl)cc21)Nc1ccc(N2CCNCC2)cc1 [Example 93, [7-chloro-3-(4-chlorobenzenesulfonyl)-2,4(1H,3H)-quinazolinedion-1-yl]-N-(4-piperazin-1-yl)acetamide]
24 | 170 nM | – | – | Cc1ccc(S(=O)(=O)n2c(=O)c3ccc(Cl)cc3n(CC(=O)Nc3cccnc3)c2=O)cc1 [Example 94, [7-chloro-3-(4-methylbenzenesulfonyl)-2,4(1H,3H)-quinazolinedion-1-yl]-N-(3-pyridyl)acetamide]
25 | 210 nM | – | – | CC[n+]1cccc(NC(=O)Cn2c(=O)n(S(=O)(=O)c3ccc(C)cc3)c(=O)c3ccc(Cl)cc32)c1 [Example 95, 3-{7-chloro-[3-(4-methylbenzene-sulfonyl)-3-(4-methoxybenzenesulfonyl)-2,4(1H,3H)-quinazolinedion-1-yl]acetylamino}-N-ethylpyridinium iodide]
26 | 210 nM | – | – | N[C@@H](Cc1ccc(NC(=O)Cn2c(=O)n(S(=O)(=O)c3ccc(Cl)cc3)c(=O)c3ccc(Cl)cc32)cc1)C(=O)O [Example 99, [7-chloro-3-(4-chlorobenzenesulfonyl)-2,4(1H,3H)-quinazolinedion-1-yl]-N-(4-L-phenylalaninyl)acetamide]
27 | 280 nM | – | – | O=C(Cn1c(=O)n(S(=O)(=O)c2ccc(Cl)cc2)c(=O)c2ccc(Cl)cc21)Nc1ccc(C(=O)O)cc1C(=O)O [Example 101, [7-chloro-3-(4-chlorobenzenesulfonyl)-2,4 (1H,3H)-quinazolinedion-1-yl]-N-(2,4-dicarboxylphenyl)acetamide]
28 | 230 nM | – | – | N=C(N)Nc1ccc(Cn2c(=O)n(S(=O)(=O)c3ccc(Cl)cc3)c(=O)c3ccc(Cl)cc32)cc1 [Example 107, 7-chloro-3-(4-chlorobenzenesulfonyl)-1-(4-guanidinobenzyl)-2,4(1H,3H)-quinazolinedione]
29 | 240 nM | – | – | O=c1c2ccc(Cl)cc2n(COCc2ccccc2)c(=O)n1S(=O)(=O)c1ccc(Cl)cc1 [Example 109, 1-(benzyloxymethyl)-7-chloro-3-(4-chlorobenzenesulfonyl)-2,4(1H,3H)-quinazolinedione]
30 | 130 nM | – | – | O=C(O)CCCOc1ccc(NC(=O)Cn2c(=O)n(S(=O)(=O)c3ccc(Cl)cc3)c(=O)c3ccc(Cl)cc32)cc1 [Example 111, [7-chloro-3-(4-chlorobenzenesulfonyl)-2,4(1H,3H)-quinazolinedion-1-yl]-N-(4-(3-carboxylpropyloxy)phenyl)acetamide]
31 | 46 nM | – | – | O=c1c2ccc(Cl)cc2n(Cc2cccnc2)c(=O)n1S(=O)(=O)c1ccc(Cl)cc1 [Example 114, 7-chloro-3-(4-chlorobenzenesulfonyl)-1-(3-pyridylmethyl)-2,4(1H,3H)-quinazolinedione]
32 | 340 nM | – | – | O=C(Cn1c(=O)n(S(=O)(=O)c2ccc(-c3cc[nH]n3)cc2)c(=O)c2ccc(Cl)cc21)Nc1cccnc1 [Example 121, {7-chloro-3-[4-(3-pyrazolyl)benzenesulfonyl]-2,4(1H,3H)-quinazolinedion-1-yl}-N-(3-pyridlyl)acetamide]
33 | 460 nM | – | – | O=c1[nH]c2cc(Cl)ccc2c(=O)n1S(=O)(=O)c1ccc(C(F)(F)F)cc1 [Example 136, 7-chloro-3-(4-trifluoromethylbenzenesulfonyl)-2,4(1H,3H)-quinazolinedione]
34 | 60 nM | – | – | O=C(Cn1c(=O)n(S(=O)(=O)c2ccc(Cl)cc2)c(=O)c2ccc(Cl)cc21)Nc1ccc(Cl)cc1 [Example 140, [7-chloro-3-(4-chlorobenzenesulfonyl)-2,4(1H,3H)-quinazolinedion-1-yl]-N-(4-chlorophenyl)acetamide]
35 | 570 nM | – | – | CC(=O)c1ccc(S(=O)(=O)n2c(=O)[nH]c3cc(Cl)ccc3c2=O)cc1 [Example 149, 3-(4-acetylbenzenesulfonyl)-7-chloro-2,4(1H,3H)-quinazolinedione]
